Values quoted from earlier work, collected in patent US20250268820A1 (Zambon S.p.A., priority 2020, published 2025).
Blank lines part the entries; values can stand above or below the compound they belong to.

Tests used:
[1] = in vivo

Compound: OC(Cn1cncn1)(Cn1cncn1)c1ccc(F)cc1F [Fluconazole]
activity against invasive aspergillosis (invasive aspergillosis): not active

ELF exposure as fraction of the plasma concentration (healthy volunteers): approximately ⅓
concentration in the alveolar cells with respect to the plasma concentration (healthy volunteers): more than double
concentrations in bronchoalveolar lavage fluid and lung tissue in the airways versus plasma (other cases): 10 times lower
Compound: CCC(C)n1ncn(-c2ccc(N3CCN(c4ccc(OCC5COC(Cn6cncn6)(c6ccc(Cl)cc6Cl)O5)cc4)CC3)cc2)c1=O (stereo not drawn) [itraconazole]

pharmacokinetic profile (Cmax and AUC versus dose) [1]: non-linear
Compound: C[C@@H](c1ncncc1F)[C@](O)(Cn1cncn1)c1ccc(F)cc1F [voriconazole]
concentration in homogenates of lung tissue versus plasma (post-mortem studies, treated patients): comparable to those measured in the plasma
